Measurements reported in ChEMBL document CHEMBL5214996, “Design, Synthesis, and Pharmacological Evaluation of Second-Generation Soluble Adenylyl Cyclase (sAC, ADCY10) Inhibitors with Slow Dissociation Rates” (J Med Chem, 2022).
In brackets after ≈: the same amount, converted by molar mass.

Legend:
[1] = biological target: Adenylate cyclase type 10 (Rattus norvegicus, UniProt Q9Z286); assay: Inhibition of rat ADCY10 overexpressed […] assessed as IBMX stimulated cAMP accumulation preincubated for 10 mins followed by IBMX stimulation and measured after 5 mins by ELISA; type: cell-based, 4-4 cell
[2] = biological target: T1, Adenylate cyclase type 10 (Homo sapiens, UniProt Q96PN6)
[3] = biological target: T1, Adenylate cyclase type 10; remark: listed apart in the source
Description: Binding affinity to human recombinant His-tagged ADCY10 assessed as dissociation constant and measured for 600 sec by SPR analysis

[4] = AUC(0 to 24 hrs) in CD-1 mouse at 2 mg/kg,iv and measured upto 24 hrs by LC-MS analysis; type: ADME, organism-based; set-up: dose 2 mg/kg, time < 24 hrs, route iv; conditions: in vivo
[5] = Cmax in CD-1 mouse at 2 mg/kg,iv and measured upto 24 hrs by LC-MS analysis; type: ADME, organism-based; set-up: time < 24 hrs, dose 2 mg/kg, route iv; conditions: in vivo
[6] = Half life in CD-1 mouse at 2 mg/kg,iv and measured upto 24 hrs by LC-MS analysis; type: ADME, organism-based; conditions: in vivo
[7] = AUC(0 to 24 hrs) in CD-1 mouse at 10 mg/kg,po and measured upto 24 hrs by LC-MS analysis; type: ADME, organism-based; set-up: time < 24 hrs, dose 10 mg/kg, route po; conditions: in vivo
[8] = Cmax in CD-1 mouse at 10 mg/kg,po and measured upto 24 hrs by LC-MS analysis; type: ADME, organism-based; set-up: dose 10 mg/kg, time < 24 hrs, route po; conditions: in vivo
[9] = Tmax in CD-1 mouse at 10 mg/kg,po and measured upto 24 hrs by LC-MS analysis; type: ADME, organism-based; conditions: in vivo
[10] = Oral bioavailability in CD-1 mouse at 10 mg/kg and measured upto 24 hrs by LC-MS analysis; type: ADME, organism-based; conditions: in vivo
[11] = AUC(0 to 24 hrs) in CD-1 mouse at 50 mg/kg,po and measured upto 24 hrs by LC-MS analysis; type: ADME, organism-based; set-up: time < 24 hrs, dose 50 mg/kg, route po; conditions: in vivo
[12] = Cmax in CD-1 mouse at 50 mg/kg,po and measured upto 24 hrs by LC-MS analysis; type: ADME, organism-based; set-up: time < 24 hrs, dose 50 mg/kg, route po; conditions: in vivo
[13] = Tmax in CD-1 mouse at 50 mg/kg,po and measured upto 24 hrs by LC-MS analysis; type: ADME, organism-based; conditions: in vivo
[14] = Permeability of compound at pH 7.4 at 10 uM incubated for 3 hrs by PAMPA based LC/MS/MS analysis; type: ADME; conditions: pH 7.4, 3 h
[15] = 1-Octanol/water partition coefficient, logD of the compound at pH 7.4 by chromatographic analysis; type: physicochemical
[16] = Kinetic solubility of compound by UV spectroscopy analysis; type: physicochemical; conditions: read-out: Kinetic_solubility
[17] = Cytotoxicity against […] at <20 uM; type: toxicity, cell-based; conditions: 4-4 cell

T1 sequence (Q96PN6 whole entry): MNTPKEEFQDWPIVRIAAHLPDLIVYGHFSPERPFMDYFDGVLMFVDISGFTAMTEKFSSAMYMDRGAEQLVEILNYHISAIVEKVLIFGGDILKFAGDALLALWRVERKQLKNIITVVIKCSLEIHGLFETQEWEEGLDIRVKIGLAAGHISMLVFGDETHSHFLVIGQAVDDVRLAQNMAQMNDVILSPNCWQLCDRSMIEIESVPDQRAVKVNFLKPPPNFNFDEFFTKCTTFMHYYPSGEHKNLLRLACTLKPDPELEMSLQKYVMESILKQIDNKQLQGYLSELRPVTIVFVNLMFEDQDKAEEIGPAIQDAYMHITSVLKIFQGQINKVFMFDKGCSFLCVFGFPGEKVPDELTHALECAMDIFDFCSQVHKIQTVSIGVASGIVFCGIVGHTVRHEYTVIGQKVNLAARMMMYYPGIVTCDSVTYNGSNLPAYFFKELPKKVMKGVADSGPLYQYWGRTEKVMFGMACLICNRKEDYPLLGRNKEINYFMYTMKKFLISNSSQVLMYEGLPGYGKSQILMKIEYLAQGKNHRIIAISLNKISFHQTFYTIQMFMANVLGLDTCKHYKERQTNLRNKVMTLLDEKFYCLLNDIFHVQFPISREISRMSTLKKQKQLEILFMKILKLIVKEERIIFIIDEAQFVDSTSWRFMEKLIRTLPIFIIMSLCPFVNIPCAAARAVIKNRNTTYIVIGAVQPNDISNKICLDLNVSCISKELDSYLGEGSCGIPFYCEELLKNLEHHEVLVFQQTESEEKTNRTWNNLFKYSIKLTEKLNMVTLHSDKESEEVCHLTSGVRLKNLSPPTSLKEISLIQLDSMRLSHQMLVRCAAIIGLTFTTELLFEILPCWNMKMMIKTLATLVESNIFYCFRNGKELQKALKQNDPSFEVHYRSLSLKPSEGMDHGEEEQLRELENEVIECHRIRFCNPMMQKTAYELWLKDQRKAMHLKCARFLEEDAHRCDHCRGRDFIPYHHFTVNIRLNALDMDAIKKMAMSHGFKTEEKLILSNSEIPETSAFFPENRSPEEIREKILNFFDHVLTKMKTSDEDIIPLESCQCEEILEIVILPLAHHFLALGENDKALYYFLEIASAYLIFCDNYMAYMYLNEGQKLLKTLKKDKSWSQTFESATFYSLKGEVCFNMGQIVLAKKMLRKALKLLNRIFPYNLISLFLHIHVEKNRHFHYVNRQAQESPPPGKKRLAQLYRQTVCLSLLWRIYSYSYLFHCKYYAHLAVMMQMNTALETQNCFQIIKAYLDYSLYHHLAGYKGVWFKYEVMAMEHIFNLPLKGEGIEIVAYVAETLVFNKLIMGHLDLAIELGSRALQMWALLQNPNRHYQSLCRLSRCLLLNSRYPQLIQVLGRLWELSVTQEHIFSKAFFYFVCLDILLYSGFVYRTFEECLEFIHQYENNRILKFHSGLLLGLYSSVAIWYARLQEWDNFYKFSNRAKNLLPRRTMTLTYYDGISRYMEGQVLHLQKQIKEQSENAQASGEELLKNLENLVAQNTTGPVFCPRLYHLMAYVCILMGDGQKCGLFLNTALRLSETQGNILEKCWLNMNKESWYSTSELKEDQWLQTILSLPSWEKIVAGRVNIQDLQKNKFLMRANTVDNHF
Chain of Adenylate cyclase type 10 (Rattus norvegicus, UniProt Q9Z286) (Q9Z286 whole entry): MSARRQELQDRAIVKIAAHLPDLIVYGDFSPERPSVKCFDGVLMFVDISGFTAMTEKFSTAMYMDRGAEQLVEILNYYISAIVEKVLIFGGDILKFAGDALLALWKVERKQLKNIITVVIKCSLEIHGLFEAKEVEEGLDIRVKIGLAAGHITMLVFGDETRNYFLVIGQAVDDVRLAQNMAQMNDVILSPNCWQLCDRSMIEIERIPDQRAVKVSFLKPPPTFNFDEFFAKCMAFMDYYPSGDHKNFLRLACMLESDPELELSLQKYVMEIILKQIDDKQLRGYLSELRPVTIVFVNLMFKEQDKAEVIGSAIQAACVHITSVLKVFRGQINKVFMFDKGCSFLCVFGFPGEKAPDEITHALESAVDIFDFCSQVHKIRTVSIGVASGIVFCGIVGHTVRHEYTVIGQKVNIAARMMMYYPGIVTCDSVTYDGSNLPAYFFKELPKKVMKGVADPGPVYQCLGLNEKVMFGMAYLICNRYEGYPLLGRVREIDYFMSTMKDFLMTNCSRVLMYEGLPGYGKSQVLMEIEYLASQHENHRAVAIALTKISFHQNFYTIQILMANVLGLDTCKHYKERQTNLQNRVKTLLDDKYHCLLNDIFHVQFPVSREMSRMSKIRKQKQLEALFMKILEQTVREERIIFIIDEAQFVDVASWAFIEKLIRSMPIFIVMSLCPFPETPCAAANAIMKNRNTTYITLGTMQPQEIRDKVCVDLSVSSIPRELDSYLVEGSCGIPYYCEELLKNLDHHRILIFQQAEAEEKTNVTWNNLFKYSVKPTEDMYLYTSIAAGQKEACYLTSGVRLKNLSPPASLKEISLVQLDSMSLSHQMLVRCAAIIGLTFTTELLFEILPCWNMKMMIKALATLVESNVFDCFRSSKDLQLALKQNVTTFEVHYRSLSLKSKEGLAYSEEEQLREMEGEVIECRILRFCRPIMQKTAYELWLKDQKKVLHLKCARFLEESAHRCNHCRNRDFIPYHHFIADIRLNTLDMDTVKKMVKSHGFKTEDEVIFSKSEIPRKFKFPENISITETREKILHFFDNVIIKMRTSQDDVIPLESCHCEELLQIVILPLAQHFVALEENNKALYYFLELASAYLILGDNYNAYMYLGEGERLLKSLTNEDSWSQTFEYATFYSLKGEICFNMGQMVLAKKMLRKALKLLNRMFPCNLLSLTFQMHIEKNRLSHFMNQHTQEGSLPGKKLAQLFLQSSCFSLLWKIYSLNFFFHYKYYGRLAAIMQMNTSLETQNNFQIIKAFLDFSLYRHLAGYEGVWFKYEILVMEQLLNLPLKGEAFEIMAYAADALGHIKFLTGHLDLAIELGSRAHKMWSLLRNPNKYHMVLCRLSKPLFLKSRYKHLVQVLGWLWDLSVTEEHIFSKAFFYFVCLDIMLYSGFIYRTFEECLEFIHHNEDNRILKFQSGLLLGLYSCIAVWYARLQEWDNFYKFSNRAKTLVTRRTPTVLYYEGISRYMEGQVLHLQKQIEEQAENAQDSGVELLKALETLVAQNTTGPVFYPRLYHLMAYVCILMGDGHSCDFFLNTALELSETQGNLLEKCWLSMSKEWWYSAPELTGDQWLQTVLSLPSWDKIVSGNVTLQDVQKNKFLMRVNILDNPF

Row | Compound | IC50 [1] | IC50 [2] | further results
1 | COC(=O)[C@H]1COCCN1CCOc1ccccc1Cc1cn(C(F)F)nc1-c1cc(Cl)nc(N)n1 | 2.5 nM | – | –
2 | CC1(O)CCN(CCOc2ccccc2Cc2cn(C(F)F)nc2-c2cc(Cl)nc(N)n2)CC1 | 16.7 nM | – | –
3 | Nc1nc(Cl)cc(-c2nn(C(F)F)cc2Cc2ccccc2OCCN2CCOCC2)n1 | 1.9 nM | – | –
4 | Cn1cc(Cc2cccc(Cl)c2)c(-c2cc(Cl)nc(N)n2)n1 | – | 389 nM | –
5 | Nc1nc(Cl)cc(-c2nn(C(F)F)cc2Cc2ccccc2OCCN2CCNC(=O)C2)n1 | 5.5 nM | – | –
6 | Nc1nc(Cl)cc(-c2nn(C(F)F)cc2Cc2ccccc2OCC(=O)N2CCOCC2)n1 | 37.7 nM | 24.2 nM | Kd [3]: 4.7 nM
7 | Nc1nc(Cl)cc(-c2nn(C(F)F)cc2Cc2ccccc2OCCN2CCOC[C@H]2CO)n1 | – | – | AUC [4]: 0.78 µM·h; Cmax [5]: 2500 nM; t1/2 [6]: 55.8 min; AUC [7]: 0.41 µM·h; Cmax [8]: 450 nM; Tmax [9]: 15 min; F [10]: 11%; AUC [11]: 5.46 µM·h; Cmax [12]: 6100 nM; Tmax [13]: 15 min; permeability [14]: 46.3 ×10⁻⁶ cm/s; logD [15]: 2.89; solubility kinetic [16]: 79 µg/mL (≈ 160 µM); Activity [17]: Non-Toxic
8 | CNC(=O)c1ccccc1Cc1cn(C)nc1-c1cc(Cl)nc(N)n1 | – | 1240 nM | –
9 | Nc1nc(Cl)cc(-c2nn(C(F)F)cc2Cc2ccccc2)n1 | – | 829 nM | –
10 | Nc1nc(Cl)cc(-c2nn(C(F)F)cc2Cc2ccccc2OCCN2CCS(=O)(=O)CC2)n1 | 14.6 nM | – | –
11 | Nc1nc(Cl)cc(-c2nc3ccccn3c2Cc2ccccc2)n1 | – | 716 nM | –
12 | COc1ccccc1Cc1cn(C)nc1-c1cc(Cl)nc(N)n1 | – | 67 nM | –
13 | CNC(=O)c1cccc(Cc2cn(C)nc2-c2cc(Cl)nc(N)n2)c1 | – | 1880 nM | –
14 | Nc1nc(Cl)cc(-c2nn(C(F)F)cc2Cc2ccccc2OCCN2CCO[C@@H](CO)C2)n1 | 34.8 nM | – | –
15 | Nc1nc(Cl)cc(-c2nn(C(F)F)cc2Cc2ccccc2OCCN2CCO[C@H](CO)C2)n1 | 22.9 nM | – | –
16 | Nc1nc(Cl)cc(-c2nn3ccccc3c2Cc2ccccc2)n1 | – | 112 nM | –
17 | Cn1cc(Cc2ccc(Cl)cc2)c(-c2cc(Cl)nc(N)n2)n1 | – | 2580 nM | –
18 | Cn1cc(Cc2ccccc2Cl)c(-c2cc(Cl)nc(N)n2)n1 | – | 64 nM | –
